Melting point data for 88 compounds are collected here from a melting point compilation (Tetko et al.; mined from patent text by program, amines drawn as free bases though some values may be those of a salt).

Molecules are shown by their SMILES. Some results are limits rather than exact numbers.

Consider `COC(=O)C1=C(C)NC(C(C)(OC)OC)=C(C(=O)OC)C1c1ccccc1Cl` (stereo not drawn), for which the melting point (as a rule, the temperature, or range, at which the solid turns liquid) lay within 145 to 146 °C.

In turn, `CC(C)(C)c1cc(SCN2C(=O)c3ccccc3C2=O)cc(C(C)(C)C)c1O` gave a melting point of 151 to 153 °C.

Compound `CS(=O)(=O)OCCCOC(=O)c1[nH]c(-c2ccccc2)c2cc(Cl)ccc12` showed a melting point of 155 to 158 °C.

On to `Cc1[nH]cc2c(=O)n(-c3ccc(Cl)cc3)nc-2c1-c1cccc(-c2cccnc2)c1`, for which the melting point lay in the range of 312 to 318 °C.

The compound `CC(C)(C)OC(=O)NCCc1cccc(C(=O)Nc2ccc(Nc3cc(-c4cccc5c4oc4ccccc45)ncn3)cc2)c1` came in with a melting point of 235 to 238 °C.

On to `CCCOc1ccc(/C=C/c2nc3c([nH]2)c(=O)n(CC)c(=O)n3CC)cc1`, for which the melting point was more than 270 °C.

In turn, `CCCOc1ccccc1-c1nc2c(C(=O)NCC)cccc2c(=O)[nH]1` gave a melting point of 161 to 162 °C.

As to `Cc1c(N2C(=O)C[C@H](O)[C@@H]2C)ccc(C#N)c1F`, the melting point is 114 to 115 °C.

As to `O=C(Nc1ccc2c(c1)C(=O)NC2=O)C(=O)N1CCC(Cc2ccccc2)CC1`, the melting point is 239 to 241 °C.

Compound `COc1ccccc1-c1ccc(C(=O)N2Cc3cccn3Cc3ccccc32)cc1C` registered a melting point of 133 to 135 °C.

The compound `CCCCC1=NC2(CCCC2)C(=O)N1Cc1ccc(-c2ccccc2S(=O)(=O)Nc2onc(C)c2C)c(CCC(C)C)c1` gave a melting point of 50 to 53 °C.

In the case of `COC(=O)N1CCc2ccc(N)cc2CC1`, the melting point fell in the range of 100 to 104 °C.

`O=C1CCCN1C(=O)Oc1ccccc1Cl` showed a melting point of 92 to 93 °C.

`CCNc1nc2ccc(CCc3nc4cc(C)ccn4c3Br)cc2o1`: the melting point was 149 to 153 °C.

`CN1CC(CCCl)Oc2ccc(Cl)cc2C1=O` (stereo not drawn) showed a melting point of 101 to 103 °C.

`CCCCc1nc2c(O)ccc(CCN(C)C)c2[nH]1` returned a melting point of 97 to 105 °C.

In the case of `O=C(NC(=O)C(c1ccccc1)c1ccccc1)OCCCc1ccncc1`, the melting point lay in the range of 147 to 150 °C.

Regarding `S=C(Nc1ccccc1)OC1CN2CCC1CC2` (stereo not drawn), the melting point lay in the range of 132 to 133 °C.

`Cc1c(C)c2c(c(C)c1NC(=O)CC(C)(C)C)C(c1ccc(C3CCCCC3)cc1)CO2` (stereo not drawn) showed a melting point of 146 to 148 °C.

For the compound `COc1cc2c(O)cnnc2cc1OCc1ccccc1`, the melting point is 262 to 264 °C.

`NS(=O)(=O)c1ccc(-c2cn(-c3nc(-c4ccc(F)c(F)c4)cc(C(F)(F)F)n3)cn2)s1` returned a melting point of 228 °C.

In the case of `CONS(=O)(=O)c1ccc(Cl)cc1`, the melting point is 81 to 82.5 °C.

Compound `Cc1c(-c2ccc(C#N)cc2)c(C#N)c(C2CC2)n1Cc1cnc(Cl)c(COC(=O)CCC(=O)O)c1` yielded a melting point of 188 to 189 °C.

`O=C(c1ccc(-c2ccccc2)cc1)N1Cc2ccc(C(=O)C(Cl)(Cl)Cl)n2Cc2ccccc21` came in with a melting point of 197 to 198 °C.

`COc1ccc(C2NCCc3c2[nH]c2ccccc32)cc1` (stereo not drawn) displayed a melting point of 131 °C.

Compound `CCc1cccc2[nH]c(=O)oc(=O)c12` had a melting point of 202 to 204 °C.

`Cc1ccccc1CC(=O)N1CCN(c2nccs2)CC1` gave a melting point of 110 to 111 °C.

Compound `N#Cc1ccc(C(=O)OCc2ccc[nH]c2=O)cc1` yielded a melting point of 200 to 203 °C.

The compound `COc1cc2ncnc(N3CCN(C(=O)Nc4ccc(CN5CCCCC5)cc4)CC3)c2cc1OC` returned a melting point of 122 to 123 °C.

`NC(=O)c1sc2nccc(N3CCCN(c4cccc([N+](=O)[O-])c4)CC3)c2c1N` showed a melting point of 180 to 185 °C.

Regarding `CON1C(=O)CC2(CCN(CCNC(=O)c3cccnc3)CC2)C1=O`, the melting point is 112 to 119 °C.

In turn, `COc1ccc(C(=O)Nc2ccccc2)cc1NCc1cccc(O)c1` showed a melting point of 168 to 170 °C.

Regarding `O=C1CN(Cc2ccccc2)C(=O)[C@@H](Cc2c[nH]c3ccccc23)N1`, the melting point was 207 to 208 °C.

The compound `CCOC(=O)c1csc2c1N(O)CCC2` showed a melting point of 252 to 253 °C.

With `CC1CC(=O)c2cc(F)ccc2S1(=O)=O` (stereo not drawn), the melting point was 113 to 114 °C.

In the case of `CC(CC1CNc2nc(N)nc(O)c2C1)c1ccc(C(=O)N[C@@H](CCC(=O)O)C(=O)O)cc1` (stereo partly drawn), the melting point is more than 250 °C.

Compound `Cc1nc2c(OC3SCC(O)C(O)C3O)cccc2n1C` (stereo not drawn) yielded a melting point of 153 °C.

Take `CCCCCCCCCCCCSc1nnn(C(C(N)=O)(c2ccccc2)c2c(C(C)C)cccc2C(C)C)n1` (stereo not drawn): the melting point lay in the range of 102 to 105 °C.

In turn, `Cc1ccc(N2CSC(=NCC(F)(F)F)N(Cc3ccc(C(F)(F)F)cc3)C2=O)cc1` had a melting point of 62 to 63 °C.

Turning to `CC(CC(=O)O)CC(=O)c1ccc(N2CCC(c3ccccc3)CC2)cc1` (stereo not drawn), the melting point was in the range of 134 to 135 °C.

Compound `O=C(O)C1Cc2c(cccc2-c2ccccc2)CN1C(=O)C(c1ccccc1)c1ccccc1` (stereo not drawn) yielded a melting point of 216 to 221 °C.

The compound `OC(COc1cccc(-c2cc[nH]n2)c1)CN1CCN(c2ccc(Cl)cc2)CC1` (stereo not drawn) came in with a melting point of 152 to 153 °C.

Compound `Cc1nc(-c2ccccc2)nc(-c2cccc([N+](=O)[O-])c2)c1CC#N` yielded a melting point of 219 to 221 °C.

On to `CC1(C)Oc2ccsc2C(N2CCCC2=O)C1O` (stereo not drawn), for which the melting point was in the range of 154 to 155 °C.

Take `CC(=O)OC1CCC2(C)C(CCC3C2CCC2(C)C3CCC2C(C)(O)C#N)C1` (stereo not drawn): the melting point was 168 to 178 °C.

`C[C@H]1[C@H](N)CN1C(c1ccccc1)c1ccccc1` (relative stereo) yielded a melting point of 68 to 69 °C.

As to `COc1ccc(CCCl)cc1O`, the melting point lay within 53 to 54 °C.

Consider `CCC(=O)Oc1cccc2c(-c3ccccc3)c3cccc(OC(=O)CC)c3c(OC(=O)CC)c12`, for which the melting point was 216 °C.

`CCNS(=O)(=O)CC(=O)C1=CNC(C)=C(C(=O)OC)C1c1cccc([N+](=O)[O-])c1` (stereo not drawn): the melting point lay within 185 to 187 °C.

Turning to `CCOC(=O)/C=C/c1cc(Br)ccc1N(C)Cc1cnn(C)c1`, the melting point lay within 67 to 68 °C.

The compound `Cn1c(=O)n(-c2ccnc(N)c2)c2ccccc21` yielded a melting point of 204 to 205 °C.

`Cc1nc(-c2ccc(I)cc2)no1` registered a melting point of 121 to 122 °C.

For `CC(=O)SC(CC(=O)c1ccc(Oc2cccc(Cl)c2)cc1)C(=O)O` (stereo not drawn), the melting point lay within 122 to 125 °C.

Consider `CN1CCC(OC2c3ccccc3CCn3c2nc(-c2ccc(Br)cc2)c3Cl)CC1` (stereo not drawn), for which the melting point stood at 169 °C.

`CNc1cc(OCC2CO2)ccc1[N+](=O)[O-]` (stereo not drawn) yielded a melting point of 113 °C.

For `COc1cc(C)c2c(c1)C(=O)CCC2`, the melting point worked out at 55 °C.

On to `CCCCn1c(=O)c2cn(S(=O)(=O)c3ccc(C(F)(F)F)cc3)nc2n(CCCC)c1=O`, for which the melting point was 151 to 153 °C.

Compound `COc1cc2c(-c3ccnc(Cl)c3)c(CO)c(CO)cc2cc1OC1CCCC1` returned a melting point of 200 to 201 °C.

`O=C(O[C@@H]1CC[C@@H](c2cccc(F)c2F)Cc2ccc(Cl)nc21)N1CCC(n2c(=O)[nH]c3ncccc32)CC1`: the melting point turned out to be 248 °C.

Compound `COc1ccc2[nH]cc(C3=CCC4(CC3)OCCO4)c2c1` yielded a melting point of 161 to 162 °C.

`O=C(O)c1cn(-c2ccc(F)cn2)c2nc(Cl)c(F)cc2c1=O`: the melting point is 234 to 238 °C.

In turn, `CC1(C)Oc2ccc(C#N)cc2C(Oc2ccnnc2)C1(C)O` (stereo not drawn) displayed a melting point of 103 to 105 °C.

`COc1ccc(-c2nn(-c3ccsc3)c3c(Cl)cccc23)cc1` returned a melting point of 111 °C.

Regarding `CN(C)Cc1cc2c(s1)Oc1ccccc1N=C2N1CCN(C)CC1`, the melting point lay in the range of 188 to 189 °C.

For `[O-][N+](=Cc1ccc(OCc2ccccc2)cc1)C1CCCCCCC1`, the melting point was found to be 108 °C.

Turning to `COc1cccc(C=O)c1`, the melting point is 83 to 84 °C.

Regarding `COC1=CC(=O)C=CC1=O`, the melting point was in the range of 141 to 143 °C.

On to `CCCCC1N=CC(CSc2ccccc2C(=O)O)(Cc2ccc(C(=O)O)c3ccccc23)N1` (stereo not drawn), for which the melting point was 272 to 274 °C.

`O=C1N(C(c2ccccc2)c2ccccc2)c2ccccc2C1(O)c1cc2c(cc1O)OCCO2` (stereo not drawn): the melting point lay in the range of 210 to 212 °C.

`CC(C)(C)Sc1c(CC(C)(C)C(=O)O)n(Cc2ccc(Cl)cc2)c2ccc(OCc3ccccn3)cc12`: the melting point was 189 to 190 °C.

In the case of `CNC(=O)COC[C@@H]1CC(c2ccc(-c3ccc(N4C[C@H](Cn5ccnn5)OC4=O)cc3F)cn2)=NO1`, the melting point was in the range of 153 to 156 °C.

`CC12CCCC=C1CCC1C2CCC2(C)C(O)CCC12` (stereo not drawn) yielded a melting point of 144 to 147 °C.

On to `CNC(=O)CN(C)Cc1ccc(CCn2cnc3cc(-c4ccc(Cl)cc4)sc3c2=O)cc1`, for which the melting point was in the range of 146 to 149 °C.

Turning to `Nc1ccc(C(F)(F)F)cc1C(=O)O`, the melting point is 191 to 192 °C.

Consider `CCOC(=O)CCNC(=O)n1nc(Oc2c(Cl)cc(C(F)(F)F)cc2Cl)cc1C`, for which the melting point fell in the range of 73 to 74 °C.

In turn, `O=C1O[C@@H](CNC(=S)C(F)F)CN1c1ccc(N2CCS(=O)(=O)CC2)c(F)c1` registered a melting point of 146 to 147 °C.

In turn, `CN(Cc1ccccc1)C(=O)Cn1c(=O)n(C)c2nc(-c3ccccc3)ncc21` yielded a melting point of 160 to 161 °C.

In the case of `O=C(NCC(=O)OCCC(F)=C(F)F)Nc1ccc(Cl)cc1Cl`, the melting point amounted to 120 °C.

Consider `N#CC(C(=O)OC1CCCCC1)=C1Nc2ccccc2O1`, for which the melting point lay within 143 to 145 °C.

`O=C(O)Cc1cc2c(c([N+](=O)[O-])c1)NC(C(F)(F)F)CC2` (stereo not drawn) gave a melting point of 177 to 178 °C.

Regarding `N#CCc1ccc(NC(=O)CNc2ccccc2F)cc1`, the melting point is 111 to 113 °C.

`O=C1CC[C@H](CC(c2ccc(S(=O)(=O)C3CC3)cc2)c2ccc(-c3nccs3)[nH]2)C1` (stereo partly drawn) returned a melting point of 165 to 167 °C.

In turn, `CCCCc1ccc2c(c1)C(=O)N(c1ccc3c(ccn3C)c1)C2` showed a melting point of 167 to 168 °C.

The compound `CN1CC=C(SC(c2cccc(Br)c2)c2nc3ccccc3[nH]2)CC1` (stereo not drawn) came in with a melting point of 189 °C.

With `CC(CN1CCOCC1)N1CCN(c2ccccc2)CC1` (stereo not drawn), the melting point was 55 to 56 °C.

For `Cc1ccc(N2CCOCC2)c(N=C=S)c1`, the melting point is 91 to 92 °C.

The compound `COc1cc(Nc2nccc(-c3cccc(NCc4cccnc4)c3)n2)cc(OC)c1OC` gave a melting point of 78 to 80 °C.

Compound `COC(=O)c1cccnc1C(=O)c1ccccc1` had a melting point of 74 °C.
